One block for each molecule: values may come before it. Activity calls are given as the source filed them. No cut-off for these calls is given here.
Key:
HCT-116 [1] = assay: Antiproliferative activity against MTAP deleted human HCT-116 cells assessed as inhibition of cell viability by luminescence based cell titer-glo assay; assay type: functional
[2] = Selectivity ratio of IC50 for antiproliferative activity against MTAP wild type human HCT-116 cells to IC50 for antiproliferative activity against MTAP deleted human HCT-116 cells; assay type: functional
HCT-116 [3] = assay: Antiproliferative activity against MTAP wild type human HCT-116 cells assessed as inhibition of cell viability by luminescence based cell titer-glo assay; assay type: functional
[4] = Volume of distribution at steady state in male Sprague-Dawley rat at 5 mg/kg, po or 1 mg/kg, iv measured upto 24 hrs; assay type: ADME, organism-based; settings: in vivo
[5] = Toxicity in female BALB/c nude mouse assessed as drug tolerance at 25 to 200 mg/kg, po administered once daily for 21 days; assay type: organism-based; settings: in vivo, 504 h, dose 25-200 mg/kg, time 21 day
[6] = Oral bioavailability in male CD-1 mouse at 5 mg/kg or 1 mg/kg, iv measured upto 24 hrs; assay type: ADME, organism-based; settings: in vivo
[7] = target: T1, Protein arginine N-methyltransferase 5 (Homo sapiens, UniProt O14744); assay: Inhibition of PRMT5 in MTAP deleted human Lu-99 cell line assessed as increase in gammaH2AX level at upto 1000 nM measured after 5 days by Western blot analysis; assay type: cell-based; settings: time 5.0 day
T1 sequence (O14744 whole entry): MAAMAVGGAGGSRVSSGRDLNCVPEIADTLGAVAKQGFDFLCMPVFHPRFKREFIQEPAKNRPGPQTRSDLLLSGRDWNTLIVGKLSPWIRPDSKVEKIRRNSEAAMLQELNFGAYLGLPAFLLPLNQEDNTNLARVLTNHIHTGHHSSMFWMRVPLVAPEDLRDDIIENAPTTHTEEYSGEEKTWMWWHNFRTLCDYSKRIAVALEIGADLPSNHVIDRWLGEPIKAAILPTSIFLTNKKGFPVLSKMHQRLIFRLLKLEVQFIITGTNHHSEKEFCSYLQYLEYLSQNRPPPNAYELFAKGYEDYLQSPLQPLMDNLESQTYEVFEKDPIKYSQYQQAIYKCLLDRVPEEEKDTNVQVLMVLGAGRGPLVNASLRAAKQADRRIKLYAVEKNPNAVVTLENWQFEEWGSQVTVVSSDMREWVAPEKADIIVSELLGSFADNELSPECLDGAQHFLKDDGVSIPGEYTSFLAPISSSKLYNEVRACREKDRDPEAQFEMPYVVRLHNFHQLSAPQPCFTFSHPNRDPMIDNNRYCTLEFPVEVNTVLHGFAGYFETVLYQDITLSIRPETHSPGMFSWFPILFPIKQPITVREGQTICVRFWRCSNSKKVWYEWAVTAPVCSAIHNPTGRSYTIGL

HCC95 = assay: Antiproliferative activity against MTAP wild type human HCC95 cells assessed as inhibition of cell viability measured after 10 days by luminescence based cell titer-glo assay; assay type: functional; settings: HCC95, 240 h
[8] = target: T1, Protein arginine N-methyltransferase 5; assay: In vivo inhibition of PRMT5 in female BALB/c nude mouse xenografted with human Lu-99 cell line assessed as inhibition of SDMA level at 100 mg/kg administered once daily via oral gavage by Western blot analysis relative to control; assay type: functional, organism-based; set-up: scale not given: the % may be the effect or the level left
[9] = target: T1, Protein arginine N-methyltransferase 5; assay: Inhibition of PRMT5 (unknown origin)
[10] = Cmax in male Beagle dog at 3 mg/kg, po or 1 mg/kg, iv measured upto 24 hrs; assay type: ADME, organism-based, Canis lupus familiaris; settings: in vivo
[11] = AUC (0 to 24 hrs) in male Sprague-Dawley rat at 5 mg/kg, po or 1 mg/kg, iv measured upto 24 hrs; assay type: ADME, organism-based; settings: in vivo
[12] = Antiproliferative activity against MTAP wild type human KURAMOCHI cells assessed as inhibition of cell viability measured after 10 days by luminescence based cell titer-glo assay; assay type: functional; settings: 240 h
[13] = target: T1, Protein arginine N-methyltransferase 5; assay: Inhibition of PRMT5 in MTAP deleted human Lu-99 cell line assessed as reduction in SDMA level at upto 1000 nM measured after 5 days by Western blot analysis; assay type: cell-based; settings: time 5.0 day
[14] = AUC (0 to 24 hrs) in male Beagle dog at 3 mg/kg, po or 1 mg/kg, iv measured upto 24 hrs; assay type: ADME, organism-based, Canis lupus familiaris; settings: in vivo
[15] = target: T1, Protein arginine N-methyltransferase 5; assay: Inhibition of PRMT5 in MTAP deleted human Lu-99 cell line assessed as decrease pRb (Ser807/811) level at upto 1000 nM measured after 5 days by Western blot analysis; assay type: cell-based; settings: time 5.0 day
Lu-99 cell line [16] = assay: Antitumor activity against human Lu-99 cell line xenografted in female BALB/c nude mouse model assessed as tumor growth inhibition at 25 mg/kg administered once daily via oral gavage and measured upto 21 days by caliper method relative to control; assay type: functional; set-up: scale not given: the % may be the effect or the level left; settings: time <= 21 day
Lu-99 cell line [17] = assay: Antitumor activity against human Lu-99 cell line xenografted in female BALB/c nude mouse model assessed as tumor growth inhibition at 50 mg/kg administered once daily via oral gavage and measured upto 21 days by caliper method relative to control; assay type: functional; set-up: scale not given: the % may be the effect or the level left; settings: time <= 21 day
Lu-99 cell line [18] = assay: Antitumor activity against human Lu-99 cell line xenografted in female BALB/c nude mouse model assessed as tumor growth inhibition at 200 mg/kg administered once daily via oral gavage and measured upto 21 days by caliper method relative to control; assay type: functional; set-up: scale not given: the % may be the effect or the level left; settings: time <= 21 day
[19] = target: T1, Protein arginine N-methyltransferase 5; assay: In vivo inhibition of PRMT5 in female BALB/c nude mouse xenografted with human Lu-99 cell line assessed as inhibition of SDMA level at 25 mg/kg administered once daily via oral gavage by Western blot analysis relative to control; assay type: functional, organism-based; set-up: scale not given: the % may be the effect or the level left
BT-20 = assay: Antiproliferative activity against MTAP wild type human BT-20 cells assessed as inhibition of cell viability measured after 10 days by luminescence based cell titer-glo assay; assay type: functional; settings: BT-20, 240 h
[20] = AUC (0 to 24 hrs) in male CD-1 mouse at 5 mg/kg, po or 1 mg/kg, iv measured upto 24 hrs; assay type: ADME, organism-based; settings: in vivo
MDA-MB-436 = assay: Antiproliferative activity against MTAP wild type human MDA-MB-436 cells assessed as inhibition of cell viability measured after 10 days by luminescence based cell titer-glo assay; assay type: functional; settings: MDA-MB-436, 240 h
Lu-99 cell line [21] = assay: Antiproliferative activity against MTAP null human Lu-99 cell line assessed as inhibition of cell viability measured after 10 days by luminescence based cell titer-glo assay; assay type: functional; settings: Lu-99, 240 h
[22] = Cmax in male CD-1 mouse at 5 mg/kg, po or 1 mg/kg, iv measured upto 24 hrs; assay type: ADME, organism-based; settings: in vivo
[23] = Toxicity in female BALB/c nude mouse assessed as effect on body weight loss at 25 to 200 mg/kg, po administered once daily for 21 days; assay type: organism-based; settings: in vivo, 504 h, dose 25-200 mg/kg, time 21 day
[24] = target: T1, Protein arginine N-methyltransferase 5; assay: Inhibition of PRMT5 (unknown origin) in presence of MTA
[25] = Oral bioavailability in male Beagle dog at 3 mg/kg or 1 mg/kg, iv measured upto 24 hrs; assay type: ADME, organism-based, Canis lupus familiaris; settings: in vivo
[26] = Antiproliferative activity against MTAP null human NCI-H647 cells assessed as inhibition of cell viability measured after 10 days by luminescence based cell titer-glo assay; assay type: functional; settings: NCI-H647, 240 h
[27] = Cmax in male Sprague-Dawley rat at 5 mg/kg, po or 1 mg/kg, iv measured upto 24 hrs; assay type: ADME, organism-based; settings: in vivo
Lu-99 cell line [28] = assay: Antitumor activity against human Lu-99 cell line xenografted in female BALB/c nude mouse model assessed as tumor growth inhibition administered once daily via oral gavage and measured upto 21 days by caliper method; assay type: functional; settings: dose 25-200 mg/kg, time <= 21.0 day
[29] = target: T1, Protein arginine N-methyltransferase 5; assay: In vivo inhibition of PRMT5 in female BALB/c nude mouse xenografted with human Lu-99 cell line assessed as inhibition of SDMA level administered once daily via oral gavage by Western blot analysis; assay type: functional, organism-based; settings: dose 25-200 mg/kg
[30] = target: T1, Protein arginine N-methyltransferase 5; assay: Inhibition of PRMT5 in MTAP deleted human Lu-99 cell line assessed as increase in p21 level at upto 1000 nM measured after 5 days by Western blot analysis; assay type: cell-based; settings: time 5.0 day
[31] = target: T1, Protein arginine N-methyltransferase 5; assay: In vivo inhibition of PRMT5 in female BALB/c nude mouse xenografted with human Lu-99 cell line assessed as inhibition of SDMA level at 50 mg/kg administered once daily via oral gavage by Western blot analysis relative to control; assay type: functional, organism-based; set-up: scale not given: the % may be the effect or the level left
[32] = Oral bioavailability in male Sprague-Dawley rat at 5 mg/kg or 1 mg/kg, iv measured upto 24 hrs; assay type: ADME, organism-based; settings: in vivo
Lu-99 cell line [33] = assay: Antitumor activity against human Lu-99 cell line xenografted in female BALB/c nude mouse model assessed as tumor growth inhibition at 100 mg/kg administered once daily via oral gavage and measured upto 21 days by caliper method relative to control; assay type: functional; set-up: scale not given: the % may be the effect or the level left; settings: time <= 21 day
[34] = Antiproliferative activity against MTAP null human HCC15 cells assessed as inhibition of cell viability measured after 10 days by luminescence based cell titer-glo assay; assay type: functional; settings: HCC15, 240 h
DOHH-2 = assay: Antiproliferative activity against MTAP null human DOHH-2 cells assessed as inhibition of cell viability measured after 10 days by luminescence based cell titer-glo assay; assay type: functional; settings: DOHH-2, 240 h
[35] = Volume of distribution at steady state in male Beagle dog at 3 mg/kg, po or 1 mg/kg, iv measured upto 24 hrs; assay type: ADME, organism-based, Canis lupus familiaris; settings: in vivo
[36] = target: T1, Protein arginine N-methyltransferase 5; assay: In vivo inhibition of PRMT5 in female BALB/c nude mouse xenografted with human Lu-99 cell line assessed as inhibition of SDMA level at 200 mg/kg administered once daily via oral gavage by Western blot analysis relative to control; assay type: functional, organism-based; set-up: scale not given: the % may be the effect or the level left

SMILES: CN(C(=O)c1ccc2nc(N)c3c(c2c1)COC3)[C@H]1CCCN(c2ccccc2)C1
IC50 (HCT-116 [1]): 6060 nM

SMILES: N#Cc1cccc(N2C[C@@H]3C[C@H]2CN3C(=O)c2ccc3nc(N)c4c(c3c2)COC4)c1
IC50 (HCT-116 [1]): 3680 nM

SMILES: Nc1nc2cnc(C(=O)N3CCOC[C@@H]3c3ccc(C(F)(F)F)cc3)cc2c2c1COC2
Ratio IC50 [2]: 66

SMILES: N#Cc1ccc(N2C[C@@H]3C[C@H]2CN3C(=O)c2ccc3nc(N)c4c(c3c2)COC4)cc1
IC50 (HCT-116 [1]): 3170 nM

SMILES: CN(C(=O)c1ccc2nc(N)c3c(c2c1)COC3)C1CN(c2ccccc2)C1
IC50 (HCT-116 [1]): 1590 nM

SMILES: CN(C(=O)c1ccc2nc(N)c3c(c2c1)COC3)C1CCN(c2ccccc2)CC1
IC50 (HCT-116 [1]): 3890 nM

SMILES: CN(C(=O)c1cc2c3c(c(N)nc2cn1)COC3)[C@@H]1CCN(c2ccc(C#N)cc2)C1
IC50 (HCT-116 [3]): 9350 nM
IC50 (HCT-116 [1]): 137 nM

SMILES: CN(C(=O)c1cc2c3c(c(N)nc2cc1F)COC3)[C@@H]1CCN(c2ccc(C#N)cc2)C1
Vdss [4]: 1.52 L/kg
Activity [5]: Non-toxic
bioavailability [6]: 105%
inhibition [7]: Active
IC50 (HCC95): 2740 nM
Activity [8]: 68%
IC50 [9]: 68 nM
Cmax [10]: 804 ng/mL
AUC [11]: 5610 ng·h/mL
IC50 [12]: 2960 nM
IC50 (HCT-116 [3]): 1900 nM
inhibition [13]: Active
AUC [14]: 6140 ng·h/mL
inhibition [15]: Active
Activity (Lu-99 cell line [16]): 71%
Activity (Lu-99 cell line [17]): 76%
Activity (Lu-99 cell line [18]): 102%
Activity [19]: 43%
IC50 (BT-20): > 10000 nM
AUC [20]: 6900 ng·h/mL
IC50 (MDA-MB-436): 4870 nM
IC50 (Lu-99 cell line [21]): 21.9 nM
Cmax [22]: 1720 ng/mL
Activity [23]: Non-toxic
IC50 [24]: 4.7 nM
bioavailability [25]: 82.5%
IC50 [26]: 118 nM
Cmax [27]: 1020 ng/mL
IC50 (HCT-116 [1]): 15 nM
Activity (Lu-99 cell line [28]): Dose-dependent-effect
Activity [29]: Dose-dependent-effect
inhibition [30]: Active
Activity [31]: 49%
bioavailability [32]: 81%
Activity (Lu-99 cell line [33]): 94%
IC50 [34]: 6.6 nM
IC50 (DOHH-2): 20.9 nM
Vdss [35]: 1.87 L/kg
Activity [36]: 85%

SMILES: Cn1ncc(-c2ccc3c(=O)[nH]nc(CN)c3c2)c1-c1c(F)c(Cl)cc(OC2CC2)c1C#N
Ratio IC50 [2]: 73

Further lines, with some results ahead:

IC50 (HCT-116 [3]): 7820 nM
IC50 (HCT-116 [1]): 95 nM
SMILES: CN(C(=O)c1ccc2nc(N)c3c(c2c1)COC3)[C@@H]1CCN(c2ccc(C#N)cc2)C1
Ratio IC50 [2]: 82

IC50 (HCT-116 [3]): > 10000 nM
IC50 (HCT-116 [1]): 1090 nM
SMILES: CN(C(=O)c1ccc2nc(N)c3c(c2c1)COC3)[C@@H]1CCN(c2ccc(C(F)(F)F)cc2)C1

IC50 (HCT-116 [1]): 1020 nM
SMILES: CN(C(=O)c1ccc2nc(N)c3c(c2c1)COC3)[C@@H]1CCN(c2ccccc2)C1

IC50 (HCT-116 [3]): > 10000 nM
IC50 (HCT-116 [1]): 451 nM
SMILES: CN(C(=O)c1ccc2nc(N)c3c(c2c1)COC3)[C@@H]1CCN(c2ccc(C3=CCOCC3)cc2)C1
